The source of these data is patent US20100317647A1 (priority 2009, published 2010).

As a reminder, the IC50 is the concentration that gives 50% inhibition. A higher IC50 goes with weaker potency.

human Cat S, sequence (P25774 115-331): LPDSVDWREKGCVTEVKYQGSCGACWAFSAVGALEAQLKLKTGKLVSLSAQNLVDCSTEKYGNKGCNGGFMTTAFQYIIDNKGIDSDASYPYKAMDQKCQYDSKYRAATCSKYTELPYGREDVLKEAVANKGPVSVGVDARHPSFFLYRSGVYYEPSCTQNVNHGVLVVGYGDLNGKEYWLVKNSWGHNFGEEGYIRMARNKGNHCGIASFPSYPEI

The experiment has as its target human Cat S (Homo sapiens, UniProt P25774). Nature of the experiment: Cathepsin enzyme inhibition assay (fluorogenic peptide substrate cleavage). Type of experiment: biochemical. Conditions: human Cat S 1 nM; substrate Z-Val-Val-Arg-AMC 20 μM; pH 6.5; fluorescence over 20 minutes. How it is done: Cathepsin Enzyme Inhibition Assay
Enzyme activity is measured by observing the increase in fluorescence intensity caused by cleavage of a peptide substrate containing a fluorophore whose emission is quenched in the intact peptide.
Assay buffer: 100 mM potassium phosphate pH 6.5, EDTA-Na 5 mM, Triton X-100 0.001%, DTT 5 mM. Enzymes (all at 1 nM): human and mouse Cathepsin S, Cat K, Cat B, Cat L. Substrate (20 μM): Z-Val-Val-Arg-AMC, except for Cat K which uses Z-Leu-Arg-AMC (both from Bachem).
AMC=7-Amino-4-Methyl-Coumarin.
DTT=dithiothreitol. Final volume: 100 μL.
Excitation 360 nm, Emission 465 nm.
Enzyme is added to the substance dilutions in 96-well microtitre plates and the reaction is started with substrate. Fluorescence emission is measured over 20 minutes, during which time a linear increase is observed in the absence of inhibitor. IC50 are calculated by standard methods. Inhibition of human Cat S, mouse Cat S, human Cat K, mouse Cat K, human Cat B, mouse Cat B, human Cat L and mouse Cat L have been measured separately. The results obtained for human Cat S are expressed in the following table.
`N#CC1(NC(=O)[C@@H]2C[C@H](S(=O)(=O)c3ccccc3Cl)C[C@H]2COc2ccc(Cl)cc2)CC1` (single isomer, unassigned) [Example 71] had an IC50 of 3080 nM.

`CO[C@@H]1C[C@H](S(=O)(=O)c2ccc(-c3ccc(F)cc3F)cc2C(F)(F)F)C[C@H]1C(=O)NC1(C#N)CC1` (racemic) [Example 62, (1R,2R,4R) and (1S,2S,4S)-4-(2′,4′-Difluoro-3-trifluoromethyl-biphenyl-4-sulfonyl)-2-methoxy-cyclopentanecarboxylic acid (1-cyano-cyclopropyl)-amide] registered an IC50 of 1.4 nM.

Turning to `CCN1CCC(C#N)(NC(=O)[C@@H]2C[C@@H](S(=O)(=O)c3ccccc3C(F)(F)F)C[C@H]2OCc2ccc(Cl)cc2)CC1` (racemic) [Example 239, (1R,2R,4R) and (1S,2S,4S)-2-(4-Chloro-benzyloxy)-4-(2-trifluoromethyl-benzenesulfonyl)-cyclopentanecarboxylic acid (4-cyano-1-ethyl-piperidin-4-yl)-amide], inhibition was half-maximal at 6.25 nM (IC50).

As to `N#CC1(NC(=O)[C@@H]2C[C@@H](S(=O)(=O)c3ccccc3Cl)C[C@H]2C(=O)N2CCOCC2)CC1` [Example 9, (1R,2R,4R)-4-(2-Chloro-benzenesulfonyl)-2-(morpholine-4-carbonyl)-cyclopentanecarboxylic acid (1-cyano-cyclopropyl)-amide], the IC50 worked out at 0.9 nM.

In the case of `COC(=O)Cn1cc(-c2ccc(S(=O)(=O)[C@H]3C[C@@H](OC)[C@H](C(=O)NC4(C#N)CC4)C3)c(C(F)(F)F)c2)cn1` (racemic) [Example 179, (4-{4-[(1R,3R,4R) and (1S,3S,4S)-3-(1-Cyano-cyclopropylcarbamoyl)-4-methoxy-cyclopentanesulfonyl]-3-trifluoromethyl-phenyl}-pyrazol-1-yl)-acetic acid methyl ester], the IC50 stood at 0.3 nM.

For the compound `CCO[C@@H]1C[C@H](S(=O)(=O)c2ccc(-c3cnn(C)c3)cc2C(F)(F)F)C[C@H]1C(=O)NC1(C#N)CC1` (racemic) [Example 116, (1R,2R,4R) and (1S,2S,4S)-2-Ethoxy-4-[4-(1-methyl-1H-pyrazol-4-yl)-2-trifluoromethyl-benzenesulfonyl]-cyclopentanecarboxylic acid (1-cyano-cyclopropyl)-amide], the IC50 was found to be 0.3 nM.

The compound `N#CC1(NC(=O)[C@@H]2C[C@@H](S(=O)(=O)c3ccccc3Cl)C[C@H]2OCc2ccc(Cl)c(F)c2)CC1` (racemic) [Example 249, (1R,2R,4R) and (1S,2S,4S)-4-(2-Chloro-benzenesulfonyl)-2-(4-chloro-3-fluoro-benzyloxy)-cyclopentanecarboxylic acid (1-cyano-cyclopropyl)-amide] came in with an IC50 of 6.95 nM.

In turn, `Cc1noc(C)c1-c1ccc(S(=O)(=O)[C@H]2C[C@@H](OC(C)C)[C@H](C(=O)NC3(C#N)CC3)C2)c(C(F)(F)F)c1` (racemic) [Example 141, (1R,2R,4R) and (1S,2S,4S)-4-[4-(3,5-Dimethyl-isoxazol-4-yl)-2-trifluoromethyl-benzenesulfonyl]-2-isopropoxy-cyclopentanecarboxylic acid (1-cyano-cyclopropyl)-amide] returned an IC50 of 0.2 nM.

As to `N#CC1(NC(=O)[C@@H]2C[C@@H](S(=O)(=O)c3ccccc3)C[C@H]2C(=O)N2CCC(O)CC2)CC1` [Example 13, (1R,2R,4R)-4-Benzenesulfonyl-2-(4-hydroxy-piperidine-1-carbonyl)-cyclopentanecarboxylic acid (1-cyano-cyclopropyl)-amide], the IC50 worked out at 1 nM.

`CO[C@@H]1C[C@H](S(=O)(=O)c2ccc(-c3cncc(Cl)c3)cc2C(F)(F)F)C[C@H]1C(=O)NC1(C#N)CC1` (racemic) [Example 90, (1R,2R,4R) and (1S,2S,4S)-4-[4-(5-Chloro-pyridin-3-yl)-2-trifluoromethyl-benzenesulfonyl]-2-methoxy-cyclopentanecarboxylic acid (1-cyano-cyclopropyl)-amide]: inhibition was half-maximal at 0.4 nM (IC50).

With `CC(C)(C)N1CCN(c2ccc(S(=O)(=O)[C@@H]3C[C@@H](C(=O)NC4(C#N)CC4)[C@H](C(=O)N4CC(F)(F)C4)C3)c(C(F)(F)F)c2)CC1` [Example 130, (1R,2R,4R)-4-[4-(4-tert-Butyl-piperazin-1-yl)-2-trifluoromethyl-benzenesulfonyl]-2-(3,3-difluoro-azetidine-1-carbonyl)-cyclopentanecarboxylic acid (1-cyano-cyclopropyl)-amide], inhibition was half-maximal at 0.4 nM (IC50).

`N#CC1(NC(=O)[C@H]2C[C@@H](S(=O)(=O)c3ccccc3Cl)C[C@@H]2O)CC1` (racemic) [Example 52, (1S,2S,4R) and (1R,2R,4S)-4-(2-Chloro-benzenesulfonyl)-2-hydroxy-cyclopentanecarboxylic acid (1-cyano-cyclopropyl)-amide] registered an IC50 of 11700 nM.

`N#CC1(NC(=O)[C@@H]2C[C@@H](S(=O)(=O)c3ccccc3C(F)(F)F)C[C@H]2OCc2ccc(Cl)cc2)CC1` (racemic) [Example 232, (1R,2R,4R) and (1S,2S,4S)-2-(4-Chloro-benzyloxy)-4-(2-trifluoromethyl-benzenesulfonyl)-cyclopentanecarboxylic acid (1-cyano-cyclopropyl)-amide]: half-maximal inhibition (IC50) required 1.85 nM.

Compound `N#CC1(NC(=O)[C@@H]2C[C@@H](S(=O)(=O)c3ccc(Cl)cn3)C[C@H]2C(=O)N2CCC(F)(F)C2)CC1` [Example 225, (1R,2R,4R)-4-(5-Chloro-pyridine-2-sulfonyl)-2-(3,3-difluoro-pyrrolidine-1-carbonyl)-cyclopentanecarboxylic acid (1-cyano-cyclopropyl)-amide] had an IC50 of 0.38 nM.

Turning to `Cc1cc(-c2ccc(S(=O)(=O)[C@H]3C[C@@H](OC4CCOCC4)[C@H](C(=O)NC4(C#N)CC4)C3)c(C(F)(F)F)c2)ccn1` (racemic) [Example 174, (1R,2R,4R) and (1S,2S,4S)-4-[4-(2-Methyl-pyridin-4-yl)-2-trifluoromethyl-benzenesulfonyl]-2-(tetrahydro-pyran-4-yloxy)-cyclopentanecarboxylic acid (1-cyano-cyclopropyl)-amide], the IC50 was found to be 0.17 nM.

`N#CCNC(=O)[C@@H]1C[C@@H](S(=O)(=O)c2ccccc2Cl)C[C@H]1O` (racemic) [Example 49, (1R,2R,4R) and (1S,2S,4S)-4-(2-Chloro-benzenesulfonyl)-2-hydroxy-cyclopentanecarboxylic acid cyanomethyl-amide] showed an IC50 of 82.3 nM.

The compound `CO[C@@H]1C[C@H](S(=O)(=O)c2ccc(-c3cc[nH]n3)cc2C(F)(F)F)C[C@H]1C(=O)NC1(C#N)CC1` (racemic) [Example 73, (1R,2R,4R) and (1S,2S,4S)-2-Methoxy-4-[4-(1H-pyrazol-3-yl)-2-trifluoromethyl-benzenesulfonyl]-cyclopentanecarboxylic acid (1-cyano-cyclopropyl)-amide] had an IC50 of 1 nM.

With `N#CC1(NC(=O)[C@@H]2CC(S(=O)(=O)c3ccccc3Cl)C[C@H]2COc2ccc(O)nn2)CC1` (mixture of isomers) [Example 108, (1R,2R,4S)-4-(2-Chloro-benzenesulfonyl)-2-(6-hydroxy-pyridazin-3-yloxymethyl)-cyclopentanecarboxylic acid(1-cyano-cyclopropyl)-amide and (1R,2R,4R)-4-(2-Chloro-benzenesulfonyl)-2-(6-hydroxy-pyridazin-3-yloxymethyl)-cyclopentanecarboxylic acid(1-cyano-cyclopropyl)-amide], half-maximal inhibition (IC50) was put at 21.2 nM.

The compound `N#CC1(NC(=O)[C@@H]2C[C@@H](S(=O)(=O)c3ccc(N4CCN(C5CC5)CC4)cc3C(F)(F)F)C[C@H]2C(=O)N2CC(F)(F)C2)CC1` [Example 129, (1R,2R,4R)-4-[4-(4-Cyclopropyl-piperazin-1-yl)-2-trifluoromethyl-benzenesulfonyl]-2-(3,3-difluoro-azetidine-1-carbonyl)-cyclopentanecarboxylic acid (1-cyano-cyclopropyl)-amide] yielded an IC50 of 0.6 nM.

As for `CO[C@@H]1C[C@H](S(=O)(=O)c2ccc(N3CCN(C4CC4)CC3)cc2C(F)(F)F)C[C@H]1C(=O)NC1(C#N)CC1` (racemic) [Example 215, (1R,2R,4R) and (1S,2S,4S)-4-[4-(4-Cyclopropyl-piperazin-1-yl)-2-trifluoromethyl-benzenesulfonyl]-2-methoxy-cyclopentanecarboxylic acid (1-cyano-cyclopropyl)-amide], inhibition was half-maximal at 6.6 nM (IC50).

Consider `N#CCNC(=O)[C@@H]1C[C@@H](S(=O)(=O)c2ccccc2Cl)C[C@H]1C(=O)N1CCOCC1` [Example 3, (1R,2R,4R)-4-(2-Chloro-benzenesulfonyl)-2-(morpholine-4-carbonyl)-cyclopentanecarboxylic acid cyanomethyl-amide], for which the IC50 was determined as 0.5 nM.

As for `CC(C)(O[C@@H]1C[C@H](S(=O)(=O)c2ccccc2Cl)C[C@H]1C(=O)NC1(C#N)CC1)c1ccc(Cl)cc1` (racemic) [Example 244, (1R,2R,4R) and (1S,2S,4S)-2-(2-(4-chlorophenyl)propan-2-yloxy)-4-(2-chlorophenylsulfonyl)-N-(1-cyanocyclopropyl)cyclopentanecarboxamide], the midpoint of inhibition, the IC50, lay at 14.7 nM.
